Data on ten substances can be found in patent US5574023A, “Intramolecularly crosslinked (1→3)-β-D-glucans” (Seikagaku Kogyo Kabushiki Kaisha (Seikagaku Corporation), priority 1991, dated 1996).

One data set deals with Sarcoma 180 cells. Put plainly: Tumor inhibition rate, Sarcoma 180 transplanted subcutaneously in mice. The conditions noted are these: intraperitoneal, 10 times (days 1-5 and 7-11), tumor weight on day 13 versus untreated control; for % Tumor inhibition, after one month: sample administered after one month storage at 4° C.; for % Tumor inhibition, initial: sample administered immediately after preparation. It is filed as in vivo, CLJ-ICR female mice. How it is done: Sarcoma 180 cells (5×10^6 cells) were transplanted subcutaneously into the groin of each of 6-week-old CLJ-ICR female mice weighing about 25 g. The intramolecularly crosslinked, single helix conformation (1→3)-β-D-glucans of the invention as obtained in Examples 1-10 and the uncrosslinked, single helix conformation schizophyllan of Comparative Example were respectively administered to the mice at 24 hours after transplantation (day 1) and thereafter once daily on days 1-5 and 7-11 (10 times in total). Thus, each sample was comminuted in a mortar, suspended or dissolved in physiological saline for injection, sterilized in an autoclave at 121° C. for 20 minutes, and then intraperitoneally administered. In a control group, no glucan was given to mice.
On day 13, tumor nodules were excised and weighed, and their weights were compared with the tumor weight in the untreated control group for calculating tumor inhibition rates.
In the above test, sample solutions or suspensions were administered immediately after preparation on one hand and, on the other, the solutions or suspensions were administered after one month storage at 4° C.

Data set [1] in a line: Single helix conformation content by high-resolution 13C-NMR of hydrated solid sample. It is filed as physicochemical. The conditions noted are these: for Single helix conformation % retention after one month: aqueous solution or suspension stored aseptically at 4° C. for 1 month, versus initial value; for Single helix conformation content in hydrated solid sample: immediately after synthesis, 13C-NMR. The procedure: Each sample was deprived of water by lyophilization and then maintained in saturated water vapor, and the hydrated solid sample obtained was subjected to high-resolution ^13 C-NMR spectrometry. The single helix conformation content in the (1→3)-β-D-glucan in the sample was calculated by comparing the chemical shift peak heights for each carbon atom with the peak heights of the chemical shifts shown in Table 1 for other higher-order structure carbon atoms.
The single helix conformation contents thus obtained from the chemical shifts of C-2, C-3 and C-5 and the respective peak heights are shown in Table 2.
Furthermore, aqueous solutions or suspensions were stored in aseptic condition at 4° C. for 1 month and then tested for single helix conformation content in the same manner. The data obtained were compared with the initial values and the rates of retention of the respective single helix conformations contained were calculated. The uncrosslinked, single helix conformation schizophyllan, when subjected to solid-phase ^13 C-NMR spectrometry immediately after formation of said conformation, gave a single helix conformation content of 60% but, after one-month storage, the content of said structure was only 6% (10% retention). This is due to advanced transformation from the single helix conformation to other higher-order structures.

Data set [2] concerns Horseshoe crab lysate factor G. Briefly: Factor G activating ability (pNA release from Boc-Leu-Gly-Arg-pNA). It is filed as biochemical. The conditions noted are these: for % Retention of factor G activating ability after one month: aqueous solution or suspension stored one month at 4° C., versus initial value. How it is done: For each sample to be tested, a reaction mixture (200 μl) containing the sample, water and the ingredients mentioned below was prepared. […]
This reaction mixture was incubated at 37° C. for 30 minutes and, then, p-nitroaniline (pNA) liberated was quantitated. Thus, to the sample after incubation were added 0.5 ml each of 0.04% sodium nitrite (solution in 0.48M hydrochloric acid), 0.3% ammonium sulfamate and 0.07% N-1-naphthylethylenediamine dihydrichloride in that order for causing a change in color tone due to diazo coupling, and the absorbance at 545 nm (A545) was determined.
This measurement was performed for an aqueous solution or suspension of each substance immediately after synthesis thereof. The same measurement was also performed after one month storage of the sample at 4° C., the minimum concentration (C, g/ml) at which the absorbance at 545 nm amounted to 0.1 was determined, and the factor G activating ability was expressed in terms of -log C (g/ml) value. By comparing this value with the initial value, the rate of retention of factor G activating ability was calculated.

Regarding “Glutardialdehyde-crosslinked hydrazino yeast glucan [Example 9]”, in the data set with Sarcoma 180 cells, the “% Tumor inhibition, after one month” value came to 73.0% and the “% Tumor inhibition, initial” value amounted to 90.0%. Moreover, in data set [1], the “Single helix conformation % retention after one month” value (“Single helix conformation % retention” below) amounted to 53% and the “Single helix conformation content in hydrated solid sample” value (from here on “Single helix conformation content”) stood at 23%. In addition, in data set [2], the “% Retention of factor G activating ability after one month” value was determined as 20%.
The matching figures for “Glutardialdehyde-crosslinked hydrazinocurdlan [Example 2]”: 91.1%, 98.2%, 70%, 65% and 20%.
On to “2,3,4-Trihydroxyadipodialdehyde-crosslinked hydrazinocurdlan [Example 3]”, for which, in the data set on Sarcoma 180 cells, the “% Tumor inhibition, after one month” value is recorded as 92.1% and the “% Tumor inhibition, initial” value turned out to be 100%. Moreover, in data set [1], the “Single helix conformation % retention” value turned out to be 80% and the “Single helix conformation content” value was 70%. Besides, in data set [2], the “% Retention of factor G activating ability after one month” value came out at 20%.
The matching figures for “Pimelic acid-crosslinked hydrazinoschizophyllan [Example 5]”: 65.6%, 95.3%, 60%, 55% and 10%.
As to “Hexamethylenedihydrazine-crosslinked carboxymethylated curdlan [Example 8]”, in the data set with Sarcoma 180 cells, the “% Tumor inhibition, after one month” value is listed as 75.3% and the “% Tumor inhibition, initial” value is on record as 98.2%. In addition, in data set [1], the “Single helix conformation % retention” value is reported as 70% and the “Single helix conformation content” value is listed as 60%. Moreover, the “% Retention of factor G activating ability after one month” value in data set [2] was found to be 10%.
Take “Glutardialdehyde-crosslinked hydrazinocurdlan (no receptor added) [Example 1]”: in the data set on Sarcoma 180 cells, the “% Tumor inhibition, after one month” value turned out to be 70.0% and the “% Tumor inhibition, initial” value is 98.0%. In data set [1], the “Single helix conformation % retention” value stood at 60% and the “Single helix conformation content” value is listed as 70%. The “% Retention of factor G activating ability after one month” value in data set [2] is listed as 10%. In addition, the “Initial factor G activating ability, -log C (minimum concentration at which A545 amounted to 0.1)” value in data set [2] (immediately after synthesis, 37° C., 30 minutes) was 11 -log C (g/ml).
In the case of “Glutardialdehyde-crosslinked hydrazinoschizophyllan [Example 7]”, in the data set with Sarcoma 180 cells, the “% Tumor inhibition, after one month” value was determined as 95.0% and the “% Tumor inhibition, initial” value was 100%. In data set [1], the “Single helix conformation % retention” value is given as 80% and the “Single helix conformation content” value was 70%. In data set [2], the “% Retention of factor G activating ability after one month” value stood at 25%.
On to “2,3,4-Trihydroxyadipodihydrazide-crosslinked aldehyde schizophyllan [Example 6]”, for which, in the data set on Sarcoma 180 cells, the “% Tumor inhibition, after one month” value is reported as 96.1% and the “% Tumor inhibition, initial” value came out at 100%. Besides, in data set [1], the “Single helix conformation % retention” value is recorded as 90% and the “Single helix conformation content” value is 70%. Also, the “% Retention of factor G activating ability after one month” value in data set [2] is reported as 30%.
Taken in the same sequence, the figures for “Dodecamethylenediamine-crosslinked aldehyde schizophyllan [Example 4]” were 98.4%, 100%, 100%, 75% and 100%.
The matching figures for “Glutardialdehyde-crosslinked hydrazinolentinan [Example 10]”: 80.0%, 96.0%, 52%, 35% and 20%.
